{
  "source": "patent US8835631B2",
  "about": "“Therapeutic agent for cerebral infarction” (Mitsubishi Tanabe Pharma Corporation, priority 2007, dated 2014)",
  "test": "Evaluation of bioavailability in rat",
  "assay_type": "in vivo, male SD(IGS) rats",
  "experimental": "Test compound A, test compound B and test compound C were each dissolved in 0.5% aqueous HPMC (hydroxypropyl methylcellulose) solution in the case of oral administration, or in saline in the case of intravenous administration, and they were orally or intravenously administered to male SD(IGS) rats (Charles River Laboratories Japan) by 3 mg/kg. The concentration of unchanged drug in the plasma of each rat was measured, and bioavailability (F(%)) was calculated (F (%)=(AUC0-∞,p.o./AUC0-∞,i.v.,mean)×(Dosei.v./Dosep.o.)×100). The test compound was administered by gavage using an oral gavage needle (p.o.), or administered in the tail vein (i.v.). The blood samples were collected at 15 and 30 min, 1, 2, 4, 6, 8 and 24 hr after administration in the case of oral administration, and 5 and 30 min, 1, 2, 4, 6, 8 and 24 hr after administration in the case of intravenous administration.\nThe results are shown in Tables 4 (test compound A), 5 (test compound B) and 6 (test compound C). The Cmax values for i.v. in Tables 4, 5 and 6 show plasma concentration at 5 min after administration.",
  "key": {"[1]": {"settings": "3 mg/kg i.v., plasma, Mean + SD"}, "[2]": {"settings": "3 mg/kg p.o., plasma, Mean + SD"}},
  "note": "Marks after values point to notes of the source that are not given here.",
  "data": [
    {"smiles": "CC(=O)NC1(c2ccc(CN3CCN(c4ncccn4)CC3)cc2)CC1.Cl", "note": "[test compound A, N-(1-(4-((4-(pyrimidin-2-yl)piperazin-1-yl)methyl)phenyl)cyclopropyl)acetamide•hydrochloride]", "values": [
      {"measurement": "AUC0-24 h", "setting": "[1]", "result": "3850 ± 78.4", "unit": "ngh/mL"},
      {"measurement": "AUC0-∞", "setting": "[1]", "result": "3841.3 ± 77.4", "unit": "ngh/mL"},
      {"measurement": "Cmax (C5 min, plasma concentration at 5 min after administration)", "setting": "[1]", "result": "2219.9 ± 103.8^2) ng/mL"},
      {"measurement": "F (bioavailability)", "setting": "3 mg/kg p.o. vs 3 mg/kg i.v., F = (AUC0-∞,p.o./AUC0-∞,i.v.,mean) × (Dosei.v./Dosep.o.) × 100", "result": 104.3, "unit": "%"},
      {"measurement": "AUC0-24 h", "setting": "[2]", "result": "4032.9 ± 501.8", "unit": "ngh/mL"},
      {"measurement": "AUC0-∞", "setting": "[2]", "result": "4008.2 ± 491.5", "unit": "ngh/mL"},
      {"measurement": "Cmax", "setting": "[2]", "result": 1459.7, "unit": "ng/mL"}
    ]}
  ]
}
